PubChem BioAssay AID248 (DTP/NCI, 2004)
Where “and” joins values, the source holds several entries; their conditions need not be identical. Equal values may be shown once. Inconclusive results and toxic doses are left out. No stated cut-off is given here; in the data, active means T/C of 150% or more; inactive means T/C below 125%.

Test system: L1210 leukemia ip in BDF1 mice, survival T/C
Test: NCI In Vivo Anticancer Drug Screen. Data for tumor model L1210 Leukemia (intraperitoneal) in B6D2F1 (BDF1) mice
Settings: endpoint: mean survival time, higher = longer survival
Outline: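 In this screen, tumor-bearing mice given compound are compared to those given vehicle, and their survival values are reported as a treated-to-control quotient.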

[1] = dose: 100.0 mg/kg/injection, schedule: Q01DX001 (ip), vehicle: saline
[2] = dose: 200.0 mg/kg/injection, schedule: Q01DX001 (ip), vehicle: saline
[3] = dose: 400.0 mg/kg/injection, schedule: Q01DX001 (ip), vehicle: saline
[4] = dose: 100.0 mg/kg/injection, schedule: Q04DX002 (ip), vehicle: saline with Tween-80
[5] = dose: 200.0 mg/kg/injection, schedule: Q04DX002 (ip), vehicle: saline with Tween-80
[6] = dose: 400.0 mg/kg/injection, schedule: Q04DX002 (ip), vehicle: saline with Tween-80
[7] = dose: 50.0 mg/kg/injection, schedule: Q01DX001 (ip), vehicle: saline
[8] = dose: 50.0 mg/kg/injection, schedule: Q01DX009 (ip), vehicle: Klucel (hydroxypropylcellulose) (HPC)
[9] = dose: 100.0 mg/kg/injection, schedule: Q01DX009 (ip), vehicle: Klucel (hydroxypropylcellulose) (HPC)
[10] = dose: 100.0 mg/kg/injection, schedule: Q04DX003 (ip), vehicle: Klucel (hydroxypropylcellulose) (HPC)
[11] = dose: 200.0 mg/kg/injection, schedule: Q01DX009 (ip), vehicle: Klucel (hydroxypropylcellulose) (HPC)
[12] = dose: 200.0 mg/kg/injection, schedule: Q04DX003 (ip), vehicle: Klucel (hydroxypropylcellulose) (HPC)
[13] = dose: 400.0 mg/kg/injection, schedule: Q01DX009 (ip), vehicle: Klucel (hydroxypropylcellulose) (HPC)
[14] = dose: 400.0 mg/kg/injection, schedule: Q04DX003 (ip), vehicle: Klucel (hydroxypropylcellulose) (HPC)
[15] = dose: 75.0 mg/kg/injection, schedule: Q01DX001 (ip), vehicle: carboxymethylcellulose (CMC)
[16] = dose: 100.0 mg/kg/injection, schedule: Q04DX003 (ip), vehicle: saline
[17] = dose: 200.0 mg/kg/injection, schedule: Q04DX003 (ip), vehicle: saline
[18] = dose: 400.0 mg/kg/injection, schedule: Q04DX003 (ip), vehicle: saline

Measured: T/C

CCCCNC(=O)n1ncc2cc(Cl)ccc21
inactive: [1] 103 % of control | [2] 100 % of control | [3] 94 % of control

CCC[CH2][Sn]1([CH2]CCC)[CH2]CC(=O)[O]1
inactive: [4] 103 % of control | [5] 95 % of control | [6] 92 % of control

CC(=O)OC(C(C)=O)C(C)=O.CC(=O)OC(C(C)=O)C(C)=O.[Cu]
inactive: dose: 12.0 mg/kg/injection, schedule: Q01DX001 (ip), vehicle: saline 93 % of control | dose: 12.0 mg/kg/injection, schedule: Q04DX003 (ip), vehicle: saline 96 % of control | dose: 25.0 mg/kg/injection, schedule: Q01DX001 (ip), vehicle: saline 95 % of control | dose: 25.0 mg/kg/injection, schedule: Q04DX003 (ip), vehicle: saline 96 % of control | [7] 101 % of control | dose: 50.0 mg/kg/injection, schedule: Q04DX003 (ip), vehicle: saline 103 % of control

C=CCc1ccccc1NC(=O)NCCCl
inactive: [8] 106 % of control | [9] 100 % of control | [10] 93 % of control | [11] 111 % of control | [12] 104 % of control

CCC(=O)Nc1cc(C(C)C)ccc1C
inactive: [9] 107 % of control | [10] 97 % of control | [11] 110 % of control | [12] 97 % of control | [13] 103 % of control | [14] 104 % of control

O=[N+]([O-])C1CC(Cl)CCC1SSC1CCC(Cl)CC1[N+](=O)[O-] (configuration not stated)
inactive: [4] 95 % of control | [5] 98 % of control | [6] 92 % of control

O=S(=O)(/C=C/c1ccccc1)c1ccc2ccccc2c1
inactive: dose: 100.0 mg/kg/injection, schedule: Q01DX001 (ip), vehicle: acetone 97 % of control | dose: 100.0 mg/kg/injection, schedule: Q01DX009 (ip), vehicle: acetone 92 % of control | dose: 100.0 mg/kg/injection, schedule: Q04DX003 (ip), vehicle: acetone 102 % of control | dose: 200.0 mg/kg/injection, schedule: Q01DX001 (ip), vehicle: acetone 93 % of control | dose: 200.0 mg/kg/injection, schedule: Q01DX009 (ip), vehicle: acetone 92 % of control | dose: 200.0 mg/kg/injection, schedule: Q04DX003 (ip), vehicle: acetone 105 % of control | dose: 400.0 mg/kg/injection, schedule: Q01DX001 (ip), vehicle: acetone 90 % of control | dose: 400.0 mg/kg/injection, schedule: Q01DX009 (ip), vehicle: acetone 94 % of control | dose: 400.0 mg/kg/injection, schedule: Q04DX003 (ip), vehicle: acetone 102 % of control

CC/C(=N/OC(=O)N(C)C)c1ccccc1
inactive: [1] 96 % of control | [2] 100 % of control | [3] 104 % of control

CCSc1ccc2c(cc1=O)C(NC(=O)NC)CCc1cc(OC)c(OC)c(OC)c1-2 (configuration not stated)
inactive: dose: 25.0 mg/kg/injection, schedule: Q01DX009 (ip), vehicle: Klucel (hydroxypropylcellulose) (HPC) 116 % of control | [8] 112 % of control | [9] 92 % of control

O=S(=O)(c1ccc(OCC(O)COc2ccc(S(=O)(=O)c3ccc(OCC4CO4)cc3)cc2)cc1)c1ccc(OCC2CO2)cc1 (configuration not stated)
inactive: [1] 106 % of control | [2] 109 % of control | [3] 104 % of control

CCCCCCC[n+]1ccc(C(=O)c2ccccc2)cc1
inactive: [15] 96 % of control | dose: 300.0 mg/kg/injection, schedule: Q01DX001 (ip), vehicle: carboxymethylcellulose (CMC) 105 % of control

O=C(O)CCNC(=O)CNC(=O)OCc1ccccc1
inactive: [9] 98 % of control | [11] 100 % of control | dose: 300.0 mg/kg/injection, schedule: Q01DX009 (ip), vehicle: Klucel (hydroxypropylcellulose) (HPC) 98 % of control

OC1OC(CCl)C(Cl)C(O)C1O (configuration not stated)
inactive: [16] 106 % of control | [17] 101 % of control | [18] 98 % of control

CCc1ccccc1NC(=O)Nc1cc(C)ccn1
inactive: [9] 102 % of control | dose: 100.0 mg/kg/injection, schedule: Q04DX002 (ip), vehicle: Klucel (hydroxypropylcellulose) (HPC) 102 % of control | [11] 107 % of control | dose: 200.0 mg/kg/injection, schedule: Q04DX002 (ip), vehicle: Klucel (hydroxypropylcellulose) (HPC) 102 % of control | [13] 102 % of control | dose: 400.0 mg/kg/injection, schedule: Q04DX002 (ip), vehicle: Klucel (hydroxypropylcellulose) (HPC) 106 % of control

CCOC(=O)CC/C(=C/c1cccc2ccccc12)[N+](=O)[O-]
inactive: dose: 100.0 mg/kg/injection, schedule: Q04DX003 (ip), vehicle: saline with Tween-80 105 % of control | dose: 200.0 mg/kg/injection, schedule: Q04DX003 (ip), vehicle: saline with Tween-80 94 % of control

CN1CCC(CO)(c2ccccc2)C1 (configuration not stated)
inactive: [15] 96 % of control | dose: 150.0 mg/kg/injection, schedule: Q01DX001 (ip), vehicle: carboxymethylcellulose (CMC) 98 % of control

CC(=O)Nc1ccc(NC(=O)Nc2cccc(C(C)=O)c2)cc1
inactive: [9] 90 % of control | [11] 101 % of control | [13] 101 % of control

O=C(O)c1ccccc1C(=O)c1ccc(-c2ccccc2)cc1
inactive: dose: 100.0 mg/kg/injection, schedule: Q01DX001 (ip), vehicle: Klucel (hydroxypropylcellulose) (HPC) 110 % of control | dose: 200.0 mg/kg/injection, schedule: Q01DX001 (ip), vehicle: Klucel (hydroxypropylcellulose) (HPC) 102 % of control | dose: 400.0 mg/kg/injection, schedule: Q01DX001 (ip), vehicle: Klucel (hydroxypropylcellulose) (HPC) 100 % of control

CN(C)c1ccc(CC2Cc3ccccc3C2=O)cc1 (configuration not stated)
inactive: dose: 100.0 mg/kg/injection, schedule: Q01DX009 (ip), vehicle: other 96 % of control | [10] 117 % of control | dose: 200.0 mg/kg/injection, schedule: Q01DX009 (ip), vehicle: other 89 % of control | [12] 103 % of control | dose: 400.0 mg/kg/injection, schedule: Q01DX009 (ip), vehicle: other 91 % of control | [14] 98 % of control

O=c1[nH]cnc2c1[nH]c(=S)n2C1OC(CO)C(O)C1O (configuration not stated)
inactive: [1] 108 % of control | [2] 96 % of control | [3] 100 % of control

CC(C)(C)c1ccc(P(=O)(O)C(C)(C)C)cc1
inactive: dose: 75.0 mg/kg/injection, schedule: Q01DX001 (ip), vehicle: saline 96 % of control | dose: 150.0 mg/kg/injection, schedule: Q01DX001 (ip), vehicle: saline 102 % of control

COC(=O)CCN(c1cccc(Cl)c1)S(=O)(=O)c1ccc(C)cc1
inactive: [1] 98 % of control | [2] 92 % of control | [3] 98 % of control

CCOC(Nc1ccc(Cl)cc1Cl)C(=O)c1ccccc1 (configuration not stated)
inactive: [1] 97 % of control | [2] 101 % of control | [3] 101 % of control

CC(=Nc1cccc(C)c1C)c1c(O)cc(C)oc1=O
inactive: dose: 100.0 mg/kg/injection, schedule: Q01DX009 (ip), vehicle: saline 108 % of control | dose: 200.0 mg/kg/injection, schedule: Q01DX009 (ip), vehicle: saline 97 % of control | dose: 400.0 mg/kg/injection, schedule: Q01DX009 (ip), vehicle: saline 103 % of control

O=C(CCCC(=O)N/N=C/c1ccccc1[N+](=O)[O-])N/N=C\c1ccccc1[N+](=O)[O-]
inactive: [7] 112 % of control | [1] 106 % of control | [2] 101 % of control | [3] 101 % of control

C/C(CC(c1ccccc1)N1CCc2ccccc2C1)=N/O (configuration not stated)
inactive: dose: 100.0 mg/kg/injection, schedule: Q01DX009 (ip), vehicle: saline sonified 94 % of control | [16] 105 % of control | dose: 200.0 mg/kg/injection, schedule: Q01DX009 (ip), vehicle: saline sonified 94 % of control | [17] 104 % of control | dose: 400.0 mg/kg/injection, schedule: Q01DX009 (ip), vehicle: saline sonified 90 % of control | [18] 112 % of control

O=C1C=CC(=O)c2c(O)c(CBr)c(CBr)c(O)c21
inactive: dose: 6.25 mg/kg/injection, schedule: Q01DX009 (ip), vehicle: water 101 % of control | dose: 12.5 mg/kg/injection, schedule: Q01DX009 (ip), vehicle: water 92 % of control | dose: 25.0 mg/kg/injection, schedule: Q01DX009 (ip), vehicle: water 93 % of control and 94 % of control | dose: 50.0 mg/kg/injection, schedule: Q01DX009 (ip), vehicle: water 89 % of control
